Test results reported in patent US11174253B2, “Compound and pharmaceutical composition containing the same” (ALPHALA CO., LTD., priority 2017, dated 2021).

Tests used:
Type in all cases: cell-based
[1] = system: NCI-H460 human lung cancer cell line; test: MTS cell viability assay (NCI-60 methodology), GI50/LC50, NCI-H460; conditions: 48 h, NCI-H460 cells, 2 days incubation with compound
Experimental: (§1) The number of treated cells was determined by GE InCell 2200 system, and treated cells were stained with Hoechst 33342 which can reveal the remained nucleus in culture plate. The proportion of survival cells then were calculated with the ratio of treated/non-treated cells. The growth inhibition/cytotoxic effect of selected compounds were evaluated by the following protocol of NCI-60 screening platform. The human tumor cell lines are plating on a 96 well plate in a fixed density 24 hr prior compound treatment. Compounds with multiple concentrations are then added into each well for further 48 hr incubation. Cell viability is assessed by MTS method and the potency of compound is represented by GI50 and LC50 calculated by MTS result.
(§2) The cell viability measurement is based on the NCI-60 screening methodology (Nat. Rev. Cancer 6, 813-823, 2006). Briefly, cells are inoculated into 96-well plates at the optimal plating density. After 24 h, one of the two plates for each cell line is processed to determine a time zero cell viability (Tz) by MTS assay (Promega). Compounds are added over a 2-fold serial dilution to provide a total five drug concentrations plus DMSO control. Plates are incubated for a further 2 days, then measured cell viability by MTS assay [control growth (C) and test growth in the presence of drug at the five concentration levels (Ti)]. Growth inhibition of 50% (GI50) is calculated from [(Ti−Tz)/(C−Tz)]×100=50, which is the drug concentration resulting in a 50% reduction of control cells during the drug incubation. The LC50 is calculated from [(Ti−Tz)/Tz]×100=−50, which is the drug concentration resulting in a 50% reduction at the end of the drug treatment as compared to that at the beginning.
(§3) Herein, Hep3B refers to hepatocellular carcinoma cell line, SW480 refers to colon adenocarcinoma cell line, and NCI-H460 refers to human lung cancer cell line.

[2] = system: SW480 colon adenocarcinoma cell line; test: MTS cell viability assay (NCI-60 methodology), GI50/LC50, SW480; conditions: Homo sapiens, 48 h, SW480 cells, 2 days incubation with compound
Experimental: as §1, §2, §3

[3] = system: Hep3B hepatocellular carcinoma cell line; test: MTS cell viability assay (NCI-60 methodology), GI50/LC50, Hep3B; conditions: Homo sapiens, 48 h, Hep3B cells, 2 days incubation with compound
Experimental: as §1, §2, §3

[4] = system: hepatocellular carcinoma cell line Hep3B; test: Growth inhibition of Hep3B cells, 48 hr treatment, Hoechst 33342 nucleus count (GE InCell 2200); conditions: Homo sapiens
Procedure, shortened: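 Compound exposure lasted 48 hr at 37° C, 5% CO2. Surviving nuclei were counted after Hoechst 33342 staining, and survival was expressed as the treated/non-treated cell number ratio, including the ratio at 10 μM compound.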

[5] = Table 5, ratio of number of tumor cells treated with 10 μM compound to non-treated cells
[6] = Table 1, ratio of number of tumor cells treated with 10 μM compound to non-treated cells

Row | Compound | GI50 [1] [nM] | GI50 [2] [nM] | GI50 [3] [nM] | LC50 [3] [nM] | viability at 10 µM [4, 5] [%] | viability at 10 µM [4, 6] [%] | LC50 (NCI-60 lethal concentration, 50% net cell loss vs time zero) [2] [nM] | LC50 (concentration giving 50% net cell loss versus time zero, NCI-60 definition) [1] [nM] | viability at 10 µM ([4]; Table 3, ratio of number of tumor cells treated with 10 μM compound to non-treated cells) [%]
1 | CC(C)(C)c1ccc(-c2nc(NC(=O)c3ccc([N+](=O)[O-])s3)sc2Oc2ccccc2)cc1 [Compound 5-14, N-(4-(4-(tert-butyl)phenyl)-5-phenoxythiazol-2-yl)-5-nitrothiophene-2-carboxamide] | 1720 | 1510 | 340 | 7350 | 50 | – | – | – | –
2 | CCC(CC)Oc1ccc(-c2nnc(NC(=O)Cc3ccc4nc(N)sc4c3)s2)cc1 [Compound 1-16, 2-(2-aminobenzo[d]thiazol-6-yl)-N-(5-(4-(pentan-3-yloxy)phenyl)-1,3,4-thiadiazol-2-yl)acetamide] | – | 7260 | 2830 | 4340 | – | 84 | – | – | –
3 | CCOc1cnccc1-c1nnc(NC(=O)Cc2ccc3nc(N)sc3c2)s1 [Compound 1-25, 2-(2-aminobenzo[d]thiazol-6-yl)-N-(5-(3-ethoxypyridin-4-yl)-1,3,4-thiadiazol-2-yl)acetamide] | 320 | 350 | 170 | 500 | – | 54 | 1040 | – | –
4 | CCCOc1ccc(-c2nc(NC(=O)c3ccc([N+](=O)[O-])s3)sc2Oc2ccc(OC(F)(F)F)cc2)cc1 [Compound 5-8, 5-nitro-N-(4-(4-propoxyphenyl)-5-(4-(trifluoromethoxy)phenoxy)thiazol-2-yl)thiophene-2-carboxamide] | 3010 | – | 3430 | – | 24 | – | – | 4660 | –
5 | CCCOc1ccccc1-c1nnc(NC(=O)Cc2ccc3nc(N)sc3c2)s1 [Compound 1-10, 2-(2-aminobenzo[d]thiazol-6-yl)-N-(5-(2-propoxyphenyl)-1,3,4-thiadiazol-2-yl)acetamide] | – | 900 | 170 | 550 | – | 61 | 5170 | – | –
6 | CCOc1cc(OCC)c(-c2nnc(NC(=O)Cc3ccc4nc(N)sc4c3)s2)cn1 [Compound 1-35, 2-(2-aminobenzo[d]thiazol-6-yl)-N-(5-(4,6-diethoxypyridin-3-yl)-1,3,4-thiadiazol-2-yl)acetamide] | 1420 | – | 550 | 3680 | – | 42 | – | – | –
7 | O=C(Nc1nc(-c2ccc(Br)cc2)c(Oc2ccc(OC(F)(F)F)cc2)s1)c1ccc([N+](=O)[O-])s1 [Compound 5-18, N-(4-(4-bromophenyl)-5-(4-(trifluoromethoxy)phenoxy)thiazol-2-yl)-5-nitrothiophene-2-carboxamide] | 6400 | 2520 | 3090 | 4770 | – | – | 4750 | – | –
8 | CC(C)Oc1ccc(-c2nc(NC(=O)c3ccc([N+](=O)[O-])s3)sc2Oc2ccccc2)cc1 [Compound 5-10, N-(4-(4-isopropoxyphenyl)-5-phenoxythiazol-2-yl)-5-nitrothiophene-2-carboxamide] | 880 | – | 2530 | – | 29 | – | – | 5310 | –
9 | Nc1nc2ccc(CC(=O)Nc3nnc(-c4ccc(Br)cc4)s3)cc2s1 [Compound 1-7, 2-(2-aminobenzo[d]thiazol-6-yl)-N-(5-(4-bromophenyl)-1,3,4-thiadiazol-2-yl)acetamide] | – | 7700 | 3170 | 9400 | – | – | – | – | –
10 | Cc1ccc(-c2nc(NC(=O)Cc3ccc4nc(N)sc4c3)sc2-c2ccc(Br)cc2)cc1 [Compound 3-3, 2-(2-aminobenzo[d]thiazol-6-yl)-N-(5-(4-bromophenyl)-4-(p-tolyl)thiazol-2-yl)acetamide] | – | 7970 | 1140 | – | – | – | – | – | 71
11 | Cc1ccc(-c2nc(NC(=O)Cc3ccc4nc(N)sc4c3)sc2-c2ccc(F)cc2)cc1 [Compound 3-4, 2-(2-aminobenzo[d]thiazol-6-yl)-N-(5-(4-fluorophenyl)-4-(p-tolyl)thiazol-2-yl)acetamide] | 3020 | – | 2070 | – | – | – | – | – | –
12 | CCCOc1ccc(-c2nnc(NC(=O)Cc3ccc4nc(N)sc4c3)s2)cc1 [Compound 1-17, 2-(2-aminobenzo[d]thiazol-6-yl)-N-(5-(4-propoxyphenyl)-1,3,4-thiadiazol-2-yl)acetamide] | – | 1810 | 600 | 890 | – | 82 | – | – | –
13 | CCOc1ccc(-c2nnc(NC(=O)Cc3ccc4nc(N)sc4c3)s2)c(OCCN(C)C)c1 [Compound 1-29, 2-(2-aminobenzo[d]thiazol-6-yl)-N-(5-(2-(2-(dimethylamino)ethoxy)-4-ethoxyphenyl)-1,3,4-thiadiazol-2-yl)acetamide] | 5200 | 3340 | 200 | 1100 | – | – | – | – | –
14 | CCOc1ccc(-c2nc(NC(=O)Cc3ccc4nc(N)sc4c3)sc2-c2ccc(F)cc2)cc1 [Compound 3-9, 2-(2-aminobenzo[d]thiazol-6-yl)-N-(4-(4-ethoxyphenyl)-5-(4-fluorophenyl)thiazol-2-yl)acetamide] | 2390 | 8950 | 2270 | – | – | – | – | – | –
15 | CCOc1ccc(-c2nnc(NC(=O)Cc3ccc4nc(N)sc4c3)s2)c(OCCOC)c1 [Compound 1-32, 2-(2-aminobenzo[d]thiazol-6-yl)-N-(5-(4-ethoxy-2-(2-methoxyethoxy)phenyl)-1,3,4-thiadiazol-2-yl)acetamide] | 140 | 230 | 170 | 540 | – | – | 690 | 600 | –
16 | CCCCOc1ccccc1-c1nnc(NC(=O)Cc2ccc3nc(N)sc3c2)s1 [Compound 1-20, 2-(2-aminobenzo[d]thiazol-6-yl)-N-(5-(2-butoxyphenyl)-1,3,4-thiadiazol-2-yl)acetamide] | – | 1150 | 210 | 630 | – | 81 | – | – | –
17 | Cc1ccc(-c2nc(NC(=O)c3ccc([N+](=O)[O-])s3)sc2-c2ccc(Br)cc2)cc1 [Compound 6-2, N-(5-(4-bromophenyl)-4-(p-tolyl)thiazol-2-yl)-5-nitrothiophene-2-carboxamide] | – | 970 | 1270 | 1940 | – | – | 2720 | – | –
18 | CCCOc1ccc(-c2nc(NC(=O)c3ccc([N+](=O)[O-])s3)sc2Oc2ccccc2)cc1 [Compound 5-9, 5-nitro-N-(5-phenoxy-4-(4-propoxyphenyl)thiazol-2-yl)thiophene-2-carboxamide] | 1110 | – | 2430 | – | 32 | – | – | 2860 | –
19 | CC(C)Oc1ccccc1-c1nnc(NC(=O)Cc2ccc3nc(N)sc3c2)s1 [Compound 1-15, 2-(2-aminobenzo[d]thiazol-6-yl)-N-(5-(2-isopropoxyphenyl)-1,3,4-thiadiazol-2-yl)acetamide] | – | 620 | 170 | 500 | – | 56 | – | – | –
